Experiments:
Experiment in all cases: relative viability (nuclei count vs DMSO), 5 days (fraction); higher = more cells survive
Erlotinib + Luminespib = compound: C#Cc1cccc(Nc2ncnc3cc(OCCOC)c(OCCOC)cc23)c1 [Erlotinib] + CCNC(=O)c1noc(-c2cc(C(C)C)c(O)cc2O)c1-c1ccc(CN2CCOCC2)cc1 [Luminespib] (partner 0.01 µM)
In short: (§1)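 Medians of duplicate plates are given as relative viability. That measure is the nuclei count in treated wells divided by the count in vehicle wells. Counts were taken on 4× images of lung cancer cell lines in 1536-well plates, 5 days after pin-tool dosing the day after seeding with one drug alone or a fixed anchor-drug dose plus five library-drug doses (not always all listed) in √10 steps.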

Erlotinib + OSI-027 = compound: C#Cc1cccc(Nc2ncnc3cc(OCCOC)c(OCCOC)cc23)c1 [Erlotinib] + COc1cccc2cc(-c3nc([C@H]4CC[C@H](C(=O)O)CC4)n4ncnc(N)c34)[nH]c12 [OSI-027] (partner 0.5 µM)
In short: as §1

Erlotinib + Lapatinib = compound: C#Cc1cccc(Nc2ncnc3cc(OCCOC)c(OCCOC)cc23)c1 [Erlotinib] + CS(=O)(=O)CCNCc1ccc(-c2ccc3ncnc(Nc4ccc(OCc5cccc(F)c5)c(Cl)c4)c3c2)o1 [Lapatinib] (partner 2 µM)
In short: as §1

AT9283 + Palbociclib = compound: O=C(Nc1c[nH]nc1-c1nc2ccc(CN3CCOCC3)cc2[nH]1)NC1CC1 [AT9283] + CC(=O)c1c(C)c2cnc(Nc3ccc(N4CCNCC4)cn3)nc2n(C2CCCC2)c1=O [Palbociclib] (partner 0.5 µM)
In short: as §1

AT9283 + Bortezomib = compound: O=C(Nc1c[nH]nc1-c1nc2ccc(CN3CCOCC3)cc2[nH]1)NC1CC1 [AT9283] + CC(C)C[C@H](NC(=O)[C@H](Cc1ccccc1)NC(=O)c1cnccn1)B(O)O [Bortezomib] (partner 0.002 µM)
In short: as §1

Row | Cell Line | relative viability (Erlotinib + Luminespib; first compound 0.02 µM) | relative viability (Erlotinib + Luminespib; first compound 0.2 µM) | relative viability (Erlotinib + Luminespib; first compound 0.6325 µM) | relative viability (Erlotinib + Luminespib; first compound 2 µM) | relative viability (Erlotinib + OSI-027; first compound 0.02 µM) | relative viability (Erlotinib + OSI-027; first compound 0.2 µM) | relative viability (Erlotinib + OSI-027; first compound 0.6325 µM) | relative viability (Erlotinib + OSI-027; first compound 2 µM) | relative viability (Erlotinib + Lapatinib; first compound 0.02 µM) | relative viability (Erlotinib + Lapatinib; first compound 0.2 µM) | relative viability (Erlotinib + Lapatinib; first compound 0.6325 µM) | relative viability (Erlotinib + Lapatinib; first compound 2 µM) | relative viability (AT9283 + Palbociclib; first compound 0.003 µM) | relative viability (AT9283 + Palbociclib; first compound 0.03 µM) | relative viability (AT9283 + Palbociclib; first compound 0.09487 µM) | relative viability (AT9283 + Palbociclib; first compound 0.3 µM) | relative viability (AT9283 + Bortezomib; first compound 0.003 µM) | relative viability (AT9283 + Bortezomib; first compound 0.03 µM) | relative viability (AT9283 + Bortezomib; first compound 0.09487 µM) | relative viability (AT9283 + Bortezomib; first compound 0.3 µM)
1 | NCI-H2347 | 1.25 | 0.557 | 0.441 | 0.902 | 0.345 | 0.444 | 0.415 | 0.272 | 1.04 | 1.08 | 0.806 | 0.882 | 0.444 | 0.515 | 0.475 | 0.346 | 0.933 | 1.01 | 1 | 0.539
2 | NCI-H3122 | 0.0866 | 0.089 | 0.0884 | 0.107 | 0.946 | 1.06 | 0.998 | 0.641 | 1.08 | 1.03 | 0.982 | 1.01 | 0.187 | 0.208 | 0.169 | 0.153 | 1.04 | 1.02 | 0.548 | 0.37
3 | HARA | 0.784 | 0.417 | 0.586 | 0.255 | 0.575 | 0.492 | 0.44 | 0.217 | 0.857 | 0.902 | 0.976 | 0.688 | 0.265 | 0.23 | 0.135 | 0.141 | 0.795 | 1.05 | 0.172 | 0.158
4 | PC-14 | 0.154 | 0.134 | 0.147 | 0.0981 | 0.43 | 0.0949 | 0.136 | 0.0777 | 0.276 | 0.289 | 0.307 | 0.279 | 0.526 | 0.273 | 0.105 | 0.0809 | 0.944 | 0.704 | 0.179 | 0.116
5 | UMC-11 | 1.05 | 0.93 | 1.32 | 1.11 |  | 0.412 | 0.492 | 0.424 | 1.04 | 0.952 | 1.11 | 0.919 | 0.327 | 0.235 | 0.243 | 0.186 | 0.465 | 0.108 | 0.0924 | 0.129
6 | LCLC-97TM1 | 0.901 | 0.798 | 0.948 | 0.824 | 0.697 | 0.553 | 0.504 | 0.489 | 1.36 |  | 0.929 | 0.846 | 0.199 | 0.201 | 0.106 | 0.0962 | 0.49 | 0.09 | 0.139 | 0.0748
7 | HOP-62 | 0.988 | 0.949 | 0.855 | 0.881 | 0.917 | 0.848 | 1.04 | 0.754 | 1.08 | 1.09 | 0.94 | 1.04 | 0.468 | 0.405 | 0.188 | 0.197 | 0.593 | 0.651 | 0.68 | 0.158
8 | NCI-H520 | 0.242 | 0.23 | 0.253 | 0.248 | 0.282 | 0.387 | 0.271 | 0.226 | 0.825 | 0.759 | 0.913 |  | 0.238 | 0.2 | 0.142 | 0.127 | 0.574 | 0.241 | 0.182 | 0.168
9 | NCI-H2126 | 0.882 | 0.648 | 0.589 | 0.635 | 0.668 | 0.592 | 0.532 | 0.366 | 0.771 | 0.763 | 0.788 | 0.727 | 0.341 | 0.35 | 0.365 | 0.272 | 1.11 | 1.09 | 1.1 | 0.528
10 | NCI-H2087 | 0.253 | 0.15 | 0.224 | 0.152 | 0.615 |  | 0.533 | 0.384 | 0.996 | 1.15 | 1.16 | 0.921 | 0.218 | 0.234 | 0.117 | 0.121 | 0.753 | 0.626 | 0.447 | 0.23
11 | NCI-H1355 |  | 0.597 | 0.658 | 0.557 | 0.382 | 0.387 | 0.325 | 0.296 | 1.03 | 0.98 | 1.06 | 0.998 | 0.395 | 0.404 | 0.376 | 0.152 | 1.15 | 1.13 | 1.23 | 0.287
12 | A-427 | 1.18 | 0.932 | 0.857 | 0.76 | 0.449 | 0.537 | 0.468 | 0.482 | 1.04 | 1.02 | 1.12 | 0.94 | 0.523 | 0.39 | 0.299 | 0.3 | 0.977 | 0.427 | 0.216 | 0.188
13 | NCI-H460 | 0.03 | 0.0268 | 0.033 | 0.0356 |  | 0.547 | 0.469 | 0.217 | 0.918 | 1.1 | 0.999 | 0.959 | 0.146 | 0.191 | 0.0941 | 0.0475 | 0.922 | 0.905 | 0.257 | 0.032
14 | NCI-H2405 | 0.6 | 0.655 | 0.598 | 0.755 | 0.701 |  | 0.614 | 0.591 | 1.1 | 1.11 | 1.14 | 0.976 | 0.519 | 0.407 | 0.284 | 0.196 | 0.875 | 0.967 | 0.721 | 0.33
15 | NCI-H2023 | 0.721 | 0.72 | 0.81 | 0.629 | 0.428 | 0.338 | 0.285 | 0.192 | 0.737 | 0.651 | 0.965 |  | 0.417 | 0.327 | 0.258 | 0.139 | 1 | 0.918 | 0.174 | 0.123
16 | NCI-H1975 | 0.222 | 0.157 | 0.169 | 0.306 | 0.704 | 0.676 | 0.49 | 0.381 |  | 0.885 | 0.908 |  | 0.526 | 0.676 | 0.531 | 0.324 | 0.388 | 0.264 | 0.173 | 0.179

From the supplement of paper PMC10307832
